In brackets after ≈: the same amount, converted by molar mass.
Columns and labels:
Type in all cases: cell-based
[1] = test system: Escherichia coli ATCC 25922; assay: MIC, Gram-negative reference strain; conditions: for MIC: Escherichia coli, ATCC25922
Description: (§1) 2 Biological assay protocols
(§2) Microbiological tests were carried out under aseptic conditions in a laminar chamber of the 2nd […]
(§3) (BioTectum 1.2, Alchem Poland). The assessment of antimicrobial activity was carried out for final compounds in the form of free bases, soluble in DMSO (Merck, Germany), at the initial […]
(§4) concentration of 1 mg/mL. […]
(§5) were provided by Cayman Chemical, USA.
(§6) The activity of all newly synthesized compounds was tested in vitro on a panel of selected reference strains from the American Type Culture Collection (ATCC) of Gram-positive […]
(§7) 2.2 Effect of evaluated compounds on planktonic cells
(§8) The susceptibility of three reference bacterial strains (Staphylococcus epidermidis ATCC […]
(§9) Table S1) and 81 clinical MDR S. epidermidis (Table S2) to the tested compounds was assessed by determining the MIC value (Minimal Inhibitory Concentration) by microdilution in a liquid medium in 96-well flat-bottom cell culture plates (Nest Biotechnology Scientific, USA). The antibacterial properties of the compo unds were tested in the concentration range from 50 µg/mL to 0.1 µg/mL by making a series of double dilutions of the compound in liquid Mueller -Hinton II Broth Cation Adjusted (MHB II, BBL TM, USA) according to the European Committee on […]
(§10) Antimicrobial Susceptibility Testing guidelines (EUCAST).2,3 The determinations were performed twice. The MIC50 and MIC90 values were determined for each of the tested

[2] = test system: Pseudomonas aeruginosa ATCC 27853; assay: MIC, Gram-negative reference strain; conditions: for MIC: Pseudomonas aeruginosa, ATCC27853, read-out: MIC P. aeruginosa
Description: as §1, §2, §3, §4, §5, §6, §7, §8, §9, §10

[3] = test system: Acinetobacter baumannii ATCC 19606; assay: MIC, Gram-negative reference strain; conditions: for MIC: Acinetobacter baumannii, ATCC19606
Description: as §1, §2, §3, §4, §5, §6, §7, §8, §9, §10

[4] = test system: Staphylococcus epidermidis no. 44; assay: Real-time bacterial growth analysis; conditions: real-time growth analysis and MBC/MIC ratio
Description: (reduction of navy blue resazurin to pink resorufin in the presence of metabolically active cells) compared to the negative (sterile medium without bacteria and compounds) and positive control (medium with bacteria).9 The minimal biofilm eradication concentration value was analyzed using a high throughput screening the MBEC Assay® Kit (Innovotech, Canada), formerly the Calgary Biofilm Device, according to the manufacturer's insert.10
2.4.1 Determination of biofilm viability by confocal laser scanning microscope (CLSM) […]
by the selected strains was observed using the confocal laser scanning microscopy technique (CLSM, model Inverted Microscope for Industry Leica DMi8, Wetzlar, Germany). Biofilms were grown on Millicell® EZ SLIDE slides (Merck, Germany)11 and incubated with FilmTracer™ SYPRO™ Ruby Biofilm Matrix Stain (ThermoFisher Scientific, USA).12 2.5 Evaluation of bacteriostatic/bactericidal properties […]
determining MBC (Minimal Bactericidal Concentration) values. The study was conducted in accordance with the guidelines of the Clinical and Laboratory Standards Institute (CLSI).13 The MBC value was assumed to be the concentration of the compound inhibiting the growth of strains in 99.9%. Then, the value of the MBC/MIC ratio was calculated to assess its bactericidal or bacteriostatic activity. […]
compound 25 and linezolid expressed as changes in OD600 over time. […]

[5] = test system: biofilm-producing Staphylococcus epidermidis strains; assay: Biofilm eradication (MBEC Assay Kit); conditions: for MBEC50 / MBEC90: Table S4 strains
[6] = S. epidermidis ATCC 35984 (Table S4)

## O=C(Nc1cccc(Cl)c1)NC1CCN(CCC(Oc2ccc(C(F)(F)F)cc2)c2cccs2)CC1 (stereo not drawn) [Compound 25]
[1]
  MIC E. coli: exceeded 50 µg/mL
  MIC: 50 µg/mL (≈ 92.9 µM)
[2]
  MIC P. aeruginosa: exceeded 50 µg/mL
  MIC: 50 µg/mL (≈ 92.9 µM)
[3]
  MIC A. baumannii: exceeded 50 µg/mL
  MIC: 50 µg/mL (≈ 92.9 µM)
[4]
  bacteriostatic/bactericidal properties: bacteriostatic properties
[5]; [6]
  MBEC: 7.8 µg/mL
[5]
  MBEC50: 31.25 µg/mL
  MBEC90: 31.25 µg/mL
[5]; clinical strain 1 (Table S4)
  MBEC: 31.25 µg/mL
[5]; clinical strain 2 (Table S4)
  MBEC: 31.25 µg/mL
[5]; clinical strain 3 (Table S4)
  MBEC: 31.25 µg/mL
[5]; clinical strain 4 (Table S4)
  MBEC: 31.25 µg/mL
[5]; clinical strain 6 (Table S4)
  MBEC: 15.6 µg/mL
[5]; clinical strain 7 (Table S4)
  MBEC: 31.25 µg/mL
[5]; clinical strain 8 (Table S4)
  MBEC: 7.8 µg/mL
[5]; clinical strain 9 (Table S4)
  MBEC: 31.25 µg/mL
[5]; clinical strain 11 (Table S4)
  MBEC: 31.25 µg/mL
[5]; clinical strain 12 (Table S4)
  MBEC: 31.25 µg/mL
[5]; clinical strain 13 (Table S4)
  MBEC: 3.9 µg/mL
[5]; clinical strain 15 (Table S4)
  MBEC: 31.25 µg/mL
[5]; clinical strain 16 (Table S4)
  MBEC: 31.25 µg/mL
[5]; clinical strain 17 (Table S4)
  MBEC: 15.6 µg/mL
[5]; clinical strain 19 (Table S4)
  MBEC: 15.6 µg/mL
[5]; clinical strain 21 (Table S4)
  MBEC: 31.25 µg/mL
[5]; clinical strain 22 (Table S4)
  MBEC: 31.25 µg/mL
[5]; clinical strain 23 (Table S4)
  MBEC: 7.8 µg/mL
[5]; clinical strain 25 (Table S4)
  MBEC: 7.8 µg/mL
[5]; clinical strain 26 (Table S4)
  MBEC: 31.25 µg/mL
[5]; clinical strain 27 (Table S4)
  MBEC: 31.25 µg/mL
[5]; clinical strain 28 (Table S4)
  MBEC: 31.25 µg/mL
[5]; clinical strain 29 (Table S4)
  MBEC: 31.25 µg/mL
[5]; clinical strain 30 (Table S4)
  MBEC: 3.9 µg/mL
[5]; clinical strain 33 (Table S4)
  MBEC: 31.25 µg/mL
[5]; clinical strain 35 (Table S4)
  MBEC: 31.25 µg/mL
[5]; clinical strain 36 (Table S4)
  MBEC: 31.25 µg/mL
[5]; clinical strain 37 (Table S4)
  MBEC: 31.25 µg/mL
[5]; clinical strain 39 (Table S4)
  MBEC: 3.9 µg/mL
[5]; clinical strain 40 (Table S4)
  MBEC: 31.25 µg/mL
[5]; clinical strain 41 (Table S4)
  MBEC: 31.25 µg/mL
[5]; clinical strain 42 (Table S4)
  MBEC: 31.25 µg/mL
[5]; clinical strain 43 (Table S4)
  MBEC: 31.25 µg/mL
[5]; clinical strain 44 (Table S4)
  MBEC: 15.6 µg/mL
[5]; clinical strain 45 (Table S4)
  MBEC: 31.25 µg/mL
[5]; clinical strain 46 (Table S4)
  MBEC: 31.25 µg/mL
[5]; clinical strain 47 (Table S4)
  MBEC: 15.6 µg/mL
[5]; clinical strain 49 (Table S4)
  MBEC: 15.6 µg/mL
[5]; clinical strain 51 (Table S4)
  MBEC: 31.25 µg/mL
[5]; clinical strain 55 (Table S4)
  MBEC: 31.25 µg/mL
[5]; clinical strain 58 (Table S4)
  MBEC: 31.25 µg/mL
[5]; clinical strain 59 (Table S4)
  MBEC: 31.25 µg/mL
[5]; clinical strain 65 (Table S4)
  MBEC: 31.25 µg/mL
[5]; clinical strain 66 (Table S4)
  MBEC: 15.6 µg/mL
[5]; clinical strain 67 (Table S4)
  MBEC: 31.25 µg/mL
[5]; clinical strain 70 (Table S4)
  MBEC: 31.25 µg/mL
[5]; clinical strain 73 (Table S4)
  MBEC: 7.8 µg/mL
[5]; clinical strain 74 (Table S4)
  MBEC: 15.6 µg/mL
[5]; clinical strain 75 (Table S4)
  MBEC: 31.25 µg/mL
[5]; clinical strain 78 (Table S4)
  MBEC: 7.8 µg/mL
[5]; clinical strain 79 (Table S4)
  MBEC: 7.8 µg/mL

## CC(=O)NC[C@H]1CN(c2ccc(N3CCOCC3)c(F)c2)C(=O)O1 [linezolid, reference compound]
[1]
  MIC: 50 µg/mL (≈ 148 µM)
[2]
  MIC: 50 µg/mL (≈ 148 µM)
[3]
  MIC: 50 µg/mL (≈ 148 µM)
[4]
  bacteriostatic/bactericidal properties: bacteriostatic properties
[5]; [6]
  MBEC: 15.6 µg/mL
[5]
  MBEC50: 50 µg/mL
  MBEC90: 50 µg/mL
[5]; clinical strain 1 (Table S4)
  MBEC: 31.25 µg/mL
[5]; clinical strain 2 (Table S4)
  MBEC: 50 µg/mL
[5]; clinical strain 3 (Table S4)
  MBEC: 50 µg/mL
[5]; clinical strain 4 (Table S4)
  MBEC: 50 µg/mL
[5]; clinical strain 5 (Table S4)
  MBEC: 50 µg/mL
[5]; clinical strain 6 (Table S4)
  MBEC: 31.25 µg/mL
[5]; clinical strain 7 (Table S4)
  MBEC: 50 µg/mL
[5]; clinical strain 8 (Table S4)
  MBEC: 15.6 µg/mL
[5]; clinical strain 9 (Table S4)
  MBEC: 50 µg/mL
[5]; clinical strain 11 (Table S4)
  MBEC: 50 µg/mL
[5]; clinical strain 12 (Table S4)
  MBEC: 50 µg/mL
[5]; clinical strain 13 (Table S4)
  MBEC: 7.8 µg/mL
[5]; clinical strain 15 (Table S4)
  MBEC: 50 µg/mL
[5]; clinical strain 16 (Table S4)
  MBEC: 50 µg/mL
[5]; clinical strain 17 (Table S4)
  MBEC: 31.25 µg/mL
[5]; clinical strain 19 (Table S4)
  MBEC: 31.25 µg/mL
[5]; clinical strain 21 (Table S4)
  MBEC: 50 µg/mL
[5]; clinical strain 22 (Table S4)
  MBEC: 50 µg/mL
[5]; clinical strain 23 (Table S4)
  MBEC: 15.6 µg/mL
[5]; clinical strain 25 (Table S4)
  MBEC: 15.6 µg/mL
[5]; clinical strain 26 (Table S4)
  MBEC: 50 µg/mL
[5]; clinical strain 27 (Table S4)
  MBEC: 50 µg/mL
[5]; clinical strain 28 (Table S4)
  MBEC: 50 µg/mL
[5]; clinical strain 29 (Table S4)
  MBEC: 50 µg/mL
[5]; clinical strain 30 (Table S4)
  MBEC: 7.8 µg/mL
[5]; clinical strain 33 (Table S4)
  MBEC: 50 µg/mL
[5]; clinical strain 35 (Table S4)
  MBEC: 50 µg/mL
[5]; clinical strain 36 (Table S4)
  MBEC: 50 µg/mL
[5]; clinical strain 37 (Table S4)
  MBEC: 50 µg/mL
[5]; clinical strain 39 (Table S4)
  MBEC: 7.8 µg/mL
[5]; clinical strain 40 (Table S4)
  MBEC: 50 µg/mL
[5]; clinical strain 41 (Table S4)
  MBEC: 50 µg/mL
[5]; clinical strain 42 (Table S4)
  MBEC: 50 µg/mL
[5]; clinical strain 43 (Table S4)
  MBEC: 50 µg/mL
[5]; clinical strain 44 (Table S4)
  MBEC: 25 µg/mL
[5]; clinical strain 45 (Table S4)
  MBEC: 50 µg/mL
[5]; clinical strain 46 (Table S4)
  MBEC: 50 µg/mL
[5]; clinical strain 47 (Table S4)
  MBEC: 25 µg/mL
[5]; clinical strain 49 (Table S4)
  MBEC: 25 µg/mL
[5]; clinical strain 51 (Table S4)
  MBEC: 50 µg/mL
[5]; clinical strain 55 (Table S4)
  MBEC: 50 µg/mL
[5]; clinical strain 58 (Table S4)
  MBEC: 50 µg/mL
[5]; clinical strain 59 (Table S4)
  MBEC: 50 µg/mL
[5]; clinical strain 65 (Table S4)
  MBEC: 50 µg/mL
[5]; clinical strain 66 (Table S4)
  MBEC: 25 µg/mL
[5]; clinical strain 67 (Table S4)
  MBEC: 50 µg/mL
[5]; clinical strain 70 (Table S4)
  MBEC: 50 µg/mL
[5]; clinical strain 73 (Table S4)
  MBEC: 15.6 µg/mL
[5]; clinical strain 74 (Table S4)
  MBEC: 25 µg/mL
[5]; clinical strain 75 (Table S4)
  MBEC: 50 µg/mL
[5]; clinical strain 78 (Table S4)
  MBEC: 15.6 µg/mL
[5]; clinical strain 79 (Table S4)
  MBEC: 15.6 µg/mL
